How the values were obtained:
HepG2 cells = experiment: Testing of TC/TG in HepG2 cells incubated with FFA (oleic acid and palmitate); assay type: cell-based, human; conditions: 24 h; for reduction of the increase in TG level of HepG2 cell induced by oleic acid and palmitate / reduction of the increase in TC level of HepG2 cell induced by oleic acid and palmitate: 20 μM compound, 0.5 mmol/L FFA; for reduction of the increase in TG level of HepG2 cell induced by oleic acid and palmitate: FIG. 1A; for reduction of the increase in TC level of HepG2 cell induced by oleic acid and palmitate: FIG. 1B
Experimental: Cell TC/TG was tested using Nanjing Jiancheng TG test kit and TC test kit. HepG2 cells were incubated with 0.5 mmol/L FFA (oleic acid and palmitate mixed at a ratio of 2:1) and a solvent or different concentrations (20 μM, 40 μM, 80 μM) of compounds for 24 h. The culture medium was discarded and the cells were washed once with 0.01 M PBS (pH 7.4). The cells were scraped off with a cell scraper. 2-5 mL of 0.01 M PBS (pH 7.4) was then added. The cell suspension was collected and then centrifuged at 1000×g, 4° C. for 10 min. According to the ratio of 10^6 cells/300-500 μL of homogenization medium, isopropyl alcohol was added for mechanical homogenization, such that the cells were thoroughly disrupted until there was no obvious cell precipitation. The cell solution was centrifuged at 10000×g, 4° C. for 10 min. The supernatant was taken and placed on ice for testing. 2.5 μL of distilled water, standard products or samples were well mixed with […] respectively. After incubation at 37° C. for 10 min, the absorbance value of each well was tested with a microplate reader at 510 nm. Calculation formula for TC/TG concentration: sample concentration (mmol/g protein)=(ODsample−ODblank)/(ODstandard−ODblank)×standard product concentration (mmol/L)/protein concentration (g protein/L).
Preparation of protein standard: a. 1.2 mL of standard protein solution was added to a tube of protein standard (30 mg BSA), and a 25 mg/mL standard protein solution was obtained after the protein standard was thoroughly dissolved. b. An appropriate amount of 25 mg/mL protein standard was diluted to the final concentration of 0.5 mg/mL. Preparation of BCA working solution: according to the number of samples, reagent A for the BCA working solution and reagent B for BCA working solution (v/v: 50:1) were well mixed to prepare an appropriate amount of BCA working solution. Determination of protein concentration: a. 0, 1, 2, 4, 8, 12, 16, and 20 μL of the protein standard were respectively added into the standard wells of the 96-well plate, and the diluted standard solution was then added to make up to 20 μL, which is equivalent to obtaining standard concentrations of 0, 0.025, 0.05, 0.1, 0.2, 0.3, 0.4, and 0.5 mg/mL, respectively. b. An appropriate volume of sample was added to the sample wells of the 96-well plate. If the sample is less than 20 μL, the diluted standard solution should be added to make up to 20 μL. c. […] was added to each well and the well plate was set still at 37° C. for 20-30 min. d. The absorbance at A562 nm was determined with a microplate reader. e. The protein concentrations of the samples were calculated according to the standard curves and the sample volumes used.

FXR = molecular target: T1, FXR (Homo sapiens, UniProt Q96RI1); experiment: FXR antagonist screening by TR-FRET (LanthaScreen TR-FRET FXR co-activation assay kit); assay type: biochemical; conditions: Table 1.1, FXR antagonistic activity; TR-FRET with CDCA; geometric means of at least two independent runs
T1 construct: 5 μL of 20 nM FXR-LBD Complete Coregulator buffer G; purchased ThermoFisher PV4833
T1 sequence (Q96RI1 262-486 limits assumed): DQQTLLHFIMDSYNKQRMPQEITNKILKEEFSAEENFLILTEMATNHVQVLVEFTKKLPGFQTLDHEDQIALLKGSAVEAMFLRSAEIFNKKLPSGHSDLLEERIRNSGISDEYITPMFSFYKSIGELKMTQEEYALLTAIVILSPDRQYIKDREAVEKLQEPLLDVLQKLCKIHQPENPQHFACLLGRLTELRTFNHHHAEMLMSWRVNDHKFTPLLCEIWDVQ
How it was run: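 FXR-LBD (20 nM working solution) mixed with compound, CDCA (200 μM working solution) as agonist, Fluorescein-SRC2-2 and Tb-anti-GST antibody in Coregulator buffer G; 10 h at room temperature. Coactivator recruitment read by TR-FRET, triplicate wells.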

[1] = Cell proliferation inhibition (cytotoxicity) by MTT assay, HEK293A; assay type: cell-based; conditions: human, HEK293A cells, 48 hours after administration, average of three independent repeated experiments
Experimental: The human embryonic kidney cell line HEK293A was subcultured in a medium containing penicillin (final concentration: 100 U/mL), streptomycin (final concentration: 100 μg/mL) and 10% FBS, in a humidified atmosphere of 95% air and 5% carbon dioxide at a constant temperature of 37° C. When the cells were 90% confluent, the old culture medium was discarded and the cells were washed twice with 2 mL of PBS. After the PBS was discarded, 2 mL of 0.25% trypsin-0.25% EDTA mixed digestion solution was added. When it was observed under a microscope that the cells became round, 2 mL of complete culture medium was added quickly to stop the digestion. The cell solution was pipetted gently to collect cells. The cells were centrifuged at 800 rpm, 4° C. for 5 min, the supernatant was discarded, the cells were resuspended in complete culture medium and cultured in bottles, and the medium was changed every other day.
(§1) The cell proliferation inhibition ability of compounds was tested by MTT assay. HepG2 and HEK293 cells were inoculated in a 96-well plate at a density of 30%. After incubation for 18 h to allow the cells to adhere, the original culture medium was removed, a given concentration of the compound to be tested was added to each well, and an equal amount of DMSO was added to the control group. Three replicate wells were set up for each compound. 48 hours after administration, cell viability was tested by MTT assay. The blank group was the wells where no cells were added, and then its OD value was read at 490 nm with a microplate reader. Calculation formula for cell viability: cell viability (%)=(ODto be tested−ODblank)/(ODcontrol−ODblank)×100.

[2] = Cell proliferation inhibition (cytotoxicity) by MTT assay, HepG2; assay type: cell-based; conditions: human, HepG2 cells, 48 hours after administration, average of three independent repeated experiments
Experimental: The human liver cancer cell line HepG2 was subcultured in a DMEM medium containing penicillin (final concentration: 100 U/mL), streptomycin (final concentration: 100 μg/mL) and 10% FBS under the same conditions as those in the subculture of HEK293A.
as §1

SMILES	reduction of the increase in TG level of HepG2 cell induced by oleic acid and palmitate (HepG2 cells)	reduction of the increase in TC level of HepG2 cell induced by oleic acid and palmitate (HepG2 cells)	IC50 (FXR)	CC50 at 48 h [1]	CC50 at 48 h [2]	melting point	inhibitory effect on TC, dose dependence (HepG2 cells; HepG2, 20 μM, 40 μM, 80 μM)	inhibitory effect on TG, dose dependence (HepG2 cells; HepG2, 20 μM, 40 μM, 80 μM)
CC(=O)C1=CC[C@H]2[C@@H]3CC=C4C[C@@H](O)CC[C@]4(C)[C@H]3CC[C@]12C [Centatin, 1-((3S, 8R, 9S, 10R, 135, 14S)-3-hydroxy-10,13-dimethyl-2,3,4,7,8,9,10,11,12,13,14,15-dodecahydro-1H-cyclopenta[a]phenanthren-17-yl)ethan-1-one]	significantly reduce	significantly reduce	–	–	–	–	–	–
Cc1c(C(=O)O)oc2ccc(S(=O)(=O)N(CCc3ccccc3)c3ccc(Cc4ccccc4)cc3)cc12 [Example F27-S11, 3-methyl-5-(N-(4-benzylphenyl)-N-phenethylsulfamoyl)benzofuran-2-carboxylic acid]	–	–	0.1 to 10 µM	> 160 µM	> 160 µM	301 to 302 °C	–	–
Cc1c(C(=O)O)oc2ccc(S(=O)(=O)N(CCc3ccccc3)c3ccc(Oc4ccccc4)cc3)cc12 [Example F27-S12, 3-methyl-5-(N-(4-phenoxyphenyl)-N-phenethylsulfamoyl)benzofuran-2-carboxylic acid]	–	–	0.1 to 10 µM	> 160 µM	> 160 µM	–	–	–
Cc1c(C(=O)O)oc2ccc(S(=O)(=O)N(CCc3ccccc3)c3ccccc3N3CCN(C(=O)c4ccccc4)CC3)cc12 [Example F27-S96]	significantly reduce	significantly reduce	0.1 to 10 µM	> 160 µM	> 160 µM	128 to 129 °C	dose-dependent to some extent	dose-dependent to some extent
Cc1c(C(=O)O)oc2ccc(S(=O)(=O)N(CCc3ccccc3)Cc3ccccc3N3CCN(C(=O)N(C)C)CC3)cc12 [Example F27-S101, 3-methyl-5-(N-(2-(4-(dimethylcarbamoyl)piperazin-1-yl)benzyl)-N-phenethylsulfamoyl)benzofuran-2-carboxylic acid]	–	–	0.1 to 10 µM	> 160 µM	> 160 µM	118 to 119 °C	–	–
Cc1c(C(=O)O)oc2ccc(S(=O)(=O)N(CCc3ccccc3)Cc3ccccc3N3CCN(C(=O)c4ccccc4)CC3)cc12 [Example F27-S105, 3-methyl-5-(N-(2-(4-benzoylpiperazin-1-yl)benzyl)-N-phenethylsulfamoyl)benzofuran-2-carboxylic acid]	–	–	0.1 to 10 µM	> 160 µM	> 160 µM	163 to 164 °C	–	–
Cc1ccc(C)c(OCCCC(C)(C)C(=O)NCC(=O)c2ccc(O)cc2)c1 [SIPI-7623, 5-(2,5-dimethylphenoxy)-N-(2-(4-hydroxyphenyl)-2-oxoethyl)-2,2-dimethylpentanamide]	significantly reduce	significantly reduce	–	–	–	–	–	–
C/C=C1\C(=O)C[C@H]2[C@@H]3CCC4=CC(=O)CC[C@]4(C)[C@H]3CC[C@]12C [Z-GS]	significantly reduce	significantly reduce	–	–	–	–	–	–

Reference: patent publication US20240239775A1, “FXR REGULATOR, PREPARATION METHOD THEREFOR, PHARMACEUTICAL COMPOSITION THEREOF AND USE THEREOF” (QINGDAO RUIJI MEDICAL TECHNOLOGY CO., LTD., priority 2021, published 2024)
